Patent US20230002397A1, “SMALL MOLECULE DEGRADERS OF HELIOS AND METODS OF USE” (DANA-FARBER CANCER INSTITUTE, INC., priority 2019, published 2023)

Target: T1, IKZF2 (Homo sapiens, UniProt Q96SW2+Q9UKS7)
T1 construct: CRISPR/Cas9—mediated insertion of the HiBiT peptide tag (Promega™) to the N-terminus of the IKZF2 gene locus; endogenous in cells; host or cells: MOLT4 cells, with CRISPR/Cas9 knock-in of HiBiT at the endogenous IKZF2 locus
Test: HiBit-IKZF2 assay (HiBiT-Helios degradation in MOLT4 cells)
Type: cell-based
Conditions: for Dmax: MOLT-4, extent of degradation from highest to lowest concentration, 10 μM to 0.00026 μM, read-out: Dmax; for DC50: concentration at which 50% of HiBiT-Helios degradation was achieved
Protocol: The HiBiT protein tagging system was applied to MOLT4 cells via a CRISPR/Cas9—mediated insertion of the HiBiT peptide tag (Promega™) to the N-terminus of the IKZF2 gene locus (Neon™ Transfection System). The resulting HiBiT-Helios stable cell line was treated with the following compounds in triplicates following a 13-point concentration scheme ranging from 10 μM to 0.00026 μM. At the indicated timepoints, the Nano-Glo® HiBiT Lytic Detection System (Promega™) was utilized for detecting bioluminescence of the HiBiT tag in treated cells: abundance of the tag is proportionate to the level of luminescence. Following normalization to DMSO, dose-response curves were plotted (GraphPad Prism) to determine the concentration points at which 50% of HiBiT-Helios degradation was achieved by each compound. The extent of degradation (range of luminescence) from the highest to lowest concentration points was calculated to determine the Dmax.

T1 sequence (Q9UKS7 whole entry): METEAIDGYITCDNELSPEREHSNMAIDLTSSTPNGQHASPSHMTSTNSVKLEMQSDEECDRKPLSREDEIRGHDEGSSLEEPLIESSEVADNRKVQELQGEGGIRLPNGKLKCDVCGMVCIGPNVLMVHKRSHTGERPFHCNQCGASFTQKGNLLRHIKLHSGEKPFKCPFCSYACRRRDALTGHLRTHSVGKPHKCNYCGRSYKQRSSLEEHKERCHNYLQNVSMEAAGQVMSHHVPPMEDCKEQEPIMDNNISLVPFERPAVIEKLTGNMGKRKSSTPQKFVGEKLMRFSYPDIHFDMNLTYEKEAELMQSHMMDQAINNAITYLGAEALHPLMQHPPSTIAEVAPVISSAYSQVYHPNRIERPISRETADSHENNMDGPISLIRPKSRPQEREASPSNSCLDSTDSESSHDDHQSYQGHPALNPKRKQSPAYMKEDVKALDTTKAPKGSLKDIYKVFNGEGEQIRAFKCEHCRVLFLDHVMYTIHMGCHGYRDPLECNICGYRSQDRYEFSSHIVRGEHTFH
T1 sequence (Q96SW2 whole entry): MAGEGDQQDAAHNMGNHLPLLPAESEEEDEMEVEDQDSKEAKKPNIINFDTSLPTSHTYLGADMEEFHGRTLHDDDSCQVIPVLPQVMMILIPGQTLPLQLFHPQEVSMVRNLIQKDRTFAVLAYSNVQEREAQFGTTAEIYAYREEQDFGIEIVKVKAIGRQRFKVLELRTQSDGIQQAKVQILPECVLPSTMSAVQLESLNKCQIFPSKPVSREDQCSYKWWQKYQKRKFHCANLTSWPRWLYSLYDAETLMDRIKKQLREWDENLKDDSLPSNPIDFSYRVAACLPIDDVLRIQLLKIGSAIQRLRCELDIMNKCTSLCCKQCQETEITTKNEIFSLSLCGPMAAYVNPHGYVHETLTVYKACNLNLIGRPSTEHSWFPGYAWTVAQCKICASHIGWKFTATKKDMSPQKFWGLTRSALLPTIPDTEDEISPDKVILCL
T1 sequence (Q16531 whole entry partner): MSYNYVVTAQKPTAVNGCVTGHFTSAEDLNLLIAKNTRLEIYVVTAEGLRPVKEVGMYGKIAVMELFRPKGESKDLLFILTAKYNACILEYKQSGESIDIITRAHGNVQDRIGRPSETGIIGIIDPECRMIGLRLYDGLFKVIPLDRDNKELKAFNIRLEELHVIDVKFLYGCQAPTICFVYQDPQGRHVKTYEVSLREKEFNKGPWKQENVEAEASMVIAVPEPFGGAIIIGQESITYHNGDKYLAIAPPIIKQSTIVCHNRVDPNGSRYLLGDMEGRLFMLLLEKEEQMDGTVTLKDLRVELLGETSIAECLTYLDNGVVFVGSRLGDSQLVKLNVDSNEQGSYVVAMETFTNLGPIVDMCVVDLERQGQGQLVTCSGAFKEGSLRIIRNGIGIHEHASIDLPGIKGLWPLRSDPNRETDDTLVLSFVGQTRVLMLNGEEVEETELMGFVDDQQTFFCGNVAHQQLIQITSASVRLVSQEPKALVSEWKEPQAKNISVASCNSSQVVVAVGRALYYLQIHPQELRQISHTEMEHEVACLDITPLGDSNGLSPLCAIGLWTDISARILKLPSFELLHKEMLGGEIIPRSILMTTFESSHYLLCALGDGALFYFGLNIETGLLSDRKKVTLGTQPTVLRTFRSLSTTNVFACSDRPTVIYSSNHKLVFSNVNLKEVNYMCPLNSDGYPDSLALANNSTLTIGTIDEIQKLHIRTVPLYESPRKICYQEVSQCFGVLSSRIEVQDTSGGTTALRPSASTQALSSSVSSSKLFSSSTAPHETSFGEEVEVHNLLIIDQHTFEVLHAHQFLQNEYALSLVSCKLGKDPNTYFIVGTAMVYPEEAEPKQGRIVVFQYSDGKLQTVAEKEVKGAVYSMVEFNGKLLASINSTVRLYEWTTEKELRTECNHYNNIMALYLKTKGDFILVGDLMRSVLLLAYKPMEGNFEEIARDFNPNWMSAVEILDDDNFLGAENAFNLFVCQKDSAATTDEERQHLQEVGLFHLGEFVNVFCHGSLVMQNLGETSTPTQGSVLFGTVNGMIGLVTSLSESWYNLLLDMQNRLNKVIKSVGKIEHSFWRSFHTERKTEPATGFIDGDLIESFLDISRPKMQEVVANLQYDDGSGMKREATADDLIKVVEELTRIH

Structure (SMILES)	Dmax [%]	DC50 [nM]
O=C1CCC(N2Cc3cc(C4CCN(Cc5ccc6c(c5)CN(c5ccccc5)C6=O)CC4)ccc3C2=O)C(=O)N1 (stereo not shown) [Compound 123]	50 to 70	10 to 30
O=C1CCC(N2Cc3cc(C4CCN(Cc5cccc6c5CN(c5ccccn5)C6=O)CC4)ccc3C2=O)C(=O)N1 (stereo not shown) [Compound 124]	50 to 70	10 to 30
O=C1CCC(N2Cc3cc(C4CCN(Cc5cccc(N6Cc7ncccc7C6=O)c5)CC4)ccc3C2=O)C(=O)N1 (stereo not shown) [Compound 125]	50 to 70	< 10
O=C1CCC(N2Cc3cc(C4CCN(Cc5ccnc(Nc6ccccc6)c5F)CC4)ccc3C2=O)C(=O)N1 (stereo not shown) [Compound 126]	50 to 70	10 to 30
O=C1CCC(N2Cc3cc(C4CCN(Cc5cccc(Nc6cccnn6)c5)CC4)ccc3C2=O)C(=O)N1 (stereo not shown) [Compound 127]	50 to 70	10 to 30
O=C1CCC(N2Cc3cc(C4CCN(Cc5cccc(N6Cc7cccnc7C6=O)c5)CC4)ccc3C2=O)C(=O)N1 (stereo not shown) [Compound 129]	50 to 70	10 to 30
O=C1CCC(N2Cc3cc(C4CCN(Cc5ccnc(C(=O)Nc6ccccn6)c5)CC4)ccc3C2=O)C(=O)N1 (stereo not shown) [Compound 130]	50 to 70	10 to 30
O=C1CCC(N2Cc3cc(C4CCN(Cc5ccnc(C(=O)Nc6ccccc6)c5)CC4)ccc3C2=O)C(=O)N1 (stereo not shown) [Compound 131]	50 to 70	30 to 150
O=C1CCC(N2Cc3cc(C4CCN(Cc5cccc(Nc6ccc(F)cn6)c5)CC4)ccc3C2=O)C(=O)N1 (stereo not shown) [Compound 132]	50 to 70	< 10
O=C1CCC(N2Cc3cc(C4CCN(Cc5cccc(Nc6ncccc6F)c5)CC4)ccc3C2=O)C(=O)N1 (stereo not shown) [Compound 133]	50 to 70	< 10
CP(C)(=O)c1ccccc1Nc1cccc(CN2CCC(c3ccc4c(c3)CN(C3CCC(=O)NC3=O)C4=O)CC2)c1 (stereo not shown) [Compound 134]	50 to 70	< 10
CP(C)(=O)c1cccc(Nc2cccc(CN3CCC(c4ccc5c(c4)CN(C4CCC(=O)NC4=O)C5=O)CC3)c2)c1 (stereo not shown) [Compound 135, 3-(5-(1-(3-((3-(dimethylphosphoryl)phenyl)amino)benzyl)piperidin-4-yl)-1-oxoisoindolin-2-yl)piperidine-2,6-dione]	50 to 70	10 to 30
O=C1CCC(N2Cc3cc(C4CCN(Cc5cccc(N6Cc7ccccc7S6(=O)=O)c5)CC4)ccc3C2=O)C(=O)N1 (stereo not shown) [Compound 136]	50 to 70	< 10
O=C1CCC(N2Cc3cc(C4CCN(Cc5ccnc(Nc6ccccc6)c5)CC4)ccc3C2=O)C(=O)N1 (stereo not shown) [Compound 137]	50 to 70	< 10
CP(C)(=O)c1ccccc1NC(=O)c1cccc(CN2CCC(c3ccc4c(c3)CN(C3CCC(=O)NC3=O)C4=O)CC2)c1 (stereo not shown) [Compound 138]	50 to 70	< 10
O=C1CCC(N2Cc3cc(C4CCN(Cc5cnc(Nc6ccccc6)nc5)CC4)ccc3C2=O)C(=O)N1 (stereo not shown) [Compound 139]	50 to 70	30 to 150
O=C1CCC(N2Cc3cc(C4CCN(Cc5ccc(C(=O)Nc6ccccc6)nc5)CC4)ccc3C2=O)C(=O)N1 (stereo not shown) [Compound 141]	50 to 70	30 to 150
O=C1CCC(N2Cc3cc(C4CCN(Cc5ccc(Nc6ccccc6)nc5)CC4)ccc3C2=O)C(=O)N1 (stereo not shown) [Compound 142]	50 to 70	10 to 30
O=C1CCC(N2Cc3cc(C4CCN(Cc5ccccc5C(=O)Nc5ccccc5)CC4)ccc3C2=O)C(=O)N1 (stereo not shown) [Compound 144]	50 to 70	10 to 30
O=C1CCC(N2Cc3cc(C4CCN(Cc5ccc(Nc6ccccn6)cc5)CC4)ccc3C2=O)C(=O)N1 (stereo not shown) [Compound 145]	50 to 70	30 to 150
O=C1CCC(N2Cc3cc(C4CCN(Cc5ccc6c(c5)C(=O)N(c5ccccc5)C6)CC4)ccc3C2=O)C(=O)N1 (stereo not shown) [Compound 146, 3-(1-oxo-5-(1-((3-oxo-2-phenylisoindolin-5-yl)methyl)piperidin-4-yl)isoindolin-2-yl)piperidine-2,6-dione]	> 70	10 to 30
O=C1CCC(N2Cc3cc(C4CCN(Cc5ccc(N6CCCC6=O)cc5)CC4)ccc3C2=O)C(=O)N1 (stereo not shown) [Compound 147]	50 to 70	30 to 150
O=C1CCC(N2Cc3cc(C4CCN(Cc5cnc(Nc6ccccc6)s5)CC4)ccc3C2=O)C(=O)N1 (stereo not shown) [Compound 148]	50 to 70	10 to 30
O=C1CCC(N2Cc3cc(C4CCN(Cc5cccc(Nc6ncccn6)c5)CC4)ccc3C2=O)C(=O)N1 (stereo not shown) [Compound 149]	50 to 70	< 10
O=C1CCC(N2Cc3cc(C4CCN(Cc5cccc(C(=O)Nc6ccccn6)c5)CC4)ccc3C2=O)C(=O)N1 (stereo not shown) [Compound 156]	50 to 70	< 10
O=C1CCC(N2Cc3cc(C4CCN(Cc5ccc(S(=O)(=O)Nc6ccccn6)cc5)CC4)ccc3C2=O)C(=O)N1 (stereo not shown) [Compound 157]	50 to 70	30 to 150
O=C1CCC(N2Cc3cc(C4CCN(Cc5cccc(S(=O)(=O)N6C7CCC6COC7)c5)CC4)ccc3C2=O)C(=O)N1 (stereo not shown) [Compound 162]	50 to 70	< 10
O=C1CCC(N2Cc3cc(C4(O)CCN(Cc5cccc(Oc6ccccc6)c5)CC4)ccc3C2=O)C(=O)N1 (stereo not shown) [Compound 193]	> 70	< 10

Next, values leading:

Dmax [%]	DC50 [nM]	Structure (SMILES)
50 to 70	30 to 150	O=C1CCC(N2Cc3cc(C4CCN(Cc5ccc(C(=O)Nc6ccccc6)cc5)CC4)ccc3C2=O)C(=O)N1 (stereo not shown) [Compound 158]
30 to 50	10 to 30	O=C1CCC(N2Cc3cc(C4CCN(Cc5cccc(N6CCCCC6=O)c5)CC4)ccc3C2=O)C(=O)N1 (stereo not shown) [Compound 161]
50 to 70	< 10	O=C1CCC(N2Cc3cc(C4CCN(Cc5ccc(S(=O)(=O)N(c6ccccc6)C6COC6)cc5)CC4)ccc3C2=O)C(=O)N1 (stereo not shown) [Compound 165]
50 to 70	< 10	O=C1CCC(N2Cc3cc(C4CCN(Cc5ccc(S(=O)(=O)N6CCc7ccccc76)cc5)CC4)ccc3C2=O)C(=O)N1 (stereo not shown) [Compound 167]
50 to 70	< 10	O=C1CCC(N2Cc3cc(C4CCN(Cc5ccc(S(=O)(=O)N6CCC7(CC7)C6)cc5)CC4)ccc3C2=O)C(=O)N1 (stereo not shown) [Compound 169]
50 to 70	10 to 30	CN(C(=O)c1ccccc1)c1ccc(CN2CCC(c3ccc4c(c3)CN(C3CCC(=O)NC3=O)C4=O)CC2)cc1 (stereo not shown) [Compound 170]
30 to 50	10 to 30	O=C1CCC(N2Cc3cc(C4CCN(Cc5ccc6c(n5)C(=O)N(c5ccccc5)C6)CC4)ccc3C2=O)C(=O)N1 (stereo not shown) [Compound 172]
50 to 70	10 to 30	O=C1CCC(N2Cc3cc(C4CCN(Cc5cc6c(cn5)CN(c5ccccc5)C6=O)CC4)ccc3C2=O)C(=O)N1 (stereo not shown) [Compound 173]
50 to 70	< 10	O=C1CCC(N2Cc3cc(C4CCN(Cc5ccc6c(c5)C(=O)N(c5ccccc5F)C6)CC4)ccc3C2=O)C(=O)N1 (stereo not shown) [Compound 174]
50 to 70	< 10	O=C1CCC(N2Cc3cc(C4CCN(Cc5ccc6c(c5)C(=O)N(c5cccc(F)c5)C6)CC4)ccc3C2=O)C(=O)N1 (stereo not shown) [Compound 175]
> 70	30 to 150	O=C1CCC(N2Cc3cc(C4CCN(Cc5ccc6c(c5)C(=O)N(c5cccc(Cl)c5)C6)CC4)ccc3C2=O)C(=O)N1 (stereo not shown) [Compound 176]
50 to 70	< 10	N#Cc1ccc(N2Cc3ccc(CN4CCC(c5ccc6c(c5)CN(C5CCC(=O)NC5=O)C6=O)CC4)cc3C2=O)c(F)c1 (stereo not shown) [Compound 177]
30 to 50	10 to 30	O=C1CCC(N2Cc3cc(C4CCN(Cc5ccc6c(c5)C(=O)N(c5ncccn5)C6)CC4)ccc3C2=O)C(=O)N1 (stereo not shown) [Compound 178]
50 to 70	< 10	N#Cc1ccccc1N1Cc2ccc(CN3CCC(c4ccc5c(c4)CN(C4CCC(=O)NC4=O)C5=O)CC3)cc2C1=O (stereo not shown) [Compound 179]
50 to 70	10 to 30	O=C1CCC(N2Cc3cc(C4CCN(Cc5ccc6c(c5)C(=O)N(c5ccc(F)cc5)C6)CC4)ccc3C2=O)C(=O)N1 (stereo not shown) [Compound 180]
50 to 70	30 to 150	O=C1CCC(N2Cc3cc(C4CCN(Cc5ccc6c(c5)C(=O)N(c5ncccn5)CC6)CC4)ccc3C2=O)C(=O)N1 (stereo not shown) [Compound 182]
50 to 70	< 10	O=C1CCC(N2Cc3cc(C4CCN(Cc5ccc6c(c5)C(=O)N(c5ccccc5)CCC6)CC4)ccc3C2=O)C(=O)N1 (stereo not shown) [Compound 183, 3-(1-oxo-5-(1-((1-oxo-2-phenyl-2,3,4,5-tetrahydro-1H-benzo[c]azepin-8-yl)methyl)piperidin-4-yl)isoindolin-2-yl)piperidine-2,6-dione]
50 to 70	10 to 30	O=C1CCC(N2Cc3cc(C4CCN(Cc5ccc6c(c5)C(=O)N(c5ccccn5)CCC6)CC4)ccc3C2=O)C(=O)N1 (stereo not shown) [Compound 184]
50 to 70	30 to 150	N#Cc1ccc(CN2CCC(c3ccc4c(c3)CN(C3CCC(=O)NC3=O)C4=O)CC2)nc1Nc1ccccc1 (stereo not shown) [Compound 186]
50 to 70	10 to 30	O=C1CCC(N2Cc3cc(C4CCN(Cc5ccc(F)c(Nc6ccccc6)n5)CC4)ccc3C2=O)C(=O)N1 (stereo not shown) [Compound 187]
50 to 70	< 10	O=C1CCC(N2Cc3cc(C4CCN(Cc5cccc(Nc6ncccn6)c5F)CC4)ccc3C2=O)C(=O)N1 (stereo not shown) [Compound 188]
50 to 70	10 to 30	O=C1CCC(N2Cc3cc(C4CCN(Cc5cnc(Nc6ccccc6)o5)CC4)ccc3C2=O)C(=O)N1 (stereo not shown) [Compound 191]
